Test results: ChEMBL document CHEMBL1201862, “PubChem BioAssay data set” (2004)
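1) Cells in 96-well plates. 2) Compound, 48 h, 5 concentrations. 3) Linear interpolation between surrounding doses. 4) Unreached endpoint = highest concentration. GI50: concentration for 50% inhibition of growth.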 Activity calls are given as the source filed them. No stated cut-off is given here; in the data, active = GI50 up to about 1.1 µM and inactive = higher.

What was measured:
Assay in all cases: NCI-60 cell line screen, 48 h
[1] = test system: DLD-1
[2] = test system: NCI-H460
[3] = test system: HCT-116
[4] = test system: LXFL 529
[5] = test system: SK-MEL-5
[6] = test system: CCRF-CEM
[7] = test system: UACC-257
[8] = test system: HL-60
[9] = test system: SNB-19
[10] = test system: NCI-H226
[11] = test system: A498
[12] = test system: DU-145
[13] = test system: TK-10
[14] = test system: UO-31
[15] = test system: COLO 205
[16] = test system: XF498
[17] = test system: NCI-H23
[18] = test system: HT-29
[19] = test system: MOLT-4
[20] = test system: HOP-18
[21] = test system: MCF7
[22] = test system: HOP-92
[23] = test system: M14
[24] = test system: DMS-114
[25] = test system: HCT-15
[26] = test system: ACHN
[27] = test system: SK-MEL-28
[28] = test system: SK-OV-3
[29] = test system: NCI/ADR-RES
[30] = test system: MDA-N
[31] = test system: LOX IMVI
[32] = test system: U-251
[33] = test system: EKVX
[34] = test system: M19-MEL
[35] = test system: DMS-273
[36] = test system: OVCAR-4
[37] = test system: SN12C
[38] = test system: UACC-62
[39] = test system: OVCAR-5
[40] = test system: SF-539
[41] = test system: CAKI-1
[42] = test system: SF-295
[43] = test system: SR
[44] = test system: HCC 2998
[45] = test system: HOP-62
[46] = test system: RPMI-8226
[47] = test system: RXF 393
[48] = test system: A549
[49] = test system: OVCAR-3
[50] = test system: BT-549
[51] = test system: T47D
[52] = test system: 786-0
[53] = test system: SK-MEL-2
[54] = test system: KM-20L2
[55] = test system: MDA-MB-435
[56] = test system: SF-268
[57] = test system: IGROV-1
[58] = test system: KM12
[59] = test system: SW-620
[60] = test system: Hs-578T
[61] = test system: K562
[62] = test system: SNB-75
[63] = test system: PC-3
[64] = test system: Malme-3M
[65] = test system: NCI-H522
[66] = test system: MDA-MB-231
[67] = test system: SNB-78
[68] = test system: OVCAR-8

`CC[C@@]1(OC(=O)C(N)CCCCN)C(=O)OCc2c1cc1n(c2=O)Cc2cc3ccccc3nc2-1` (stereo partly drawn) was tested, and the GI50 [1] was 494 nM (active), the GI50 [2] was < 10 nM (active) and the GI50 [3] was 41.5 nM (active). The GI50 [4] was 372 nM (active), the GI50 [5] was 37.7 nM (active) and the GI50 [6] was < 10 nM (active). For the same molecule, the GI50 [7] was 143 nM (active), the GI50 [8] was < 13.2 nM (active) and the GI50 [9] was 17.6 nM (active). For the same molecule, the GI50 [10] was 111 nM (active), the GI50 [11] was 80.2 nM (active) and the GI50 [12] was < 19.9 nM (active). For the same molecule, the GI50 [13] was 2550 nM (inactive), the GI50 [14] was 26.3 nM (active) and the GI50 [15] was 389 nM (active). The GI50 [16] was 201 nM (active), the GI50 [17] was 21.9 nM (active) and the GI50 [18] was 133 nM (active). For the same molecule, the GI50 [19] was < 10 nM (active), the GI50 [20] was 78.5 nM (active) and the GI50 [21] was 21 nM (active). For the same molecule, the GI50 [22] was 179 nM (active), the GI50 [23] was 20.4 nM (active) and the GI50 [24] was < 15.7 nM (active). For the same molecule, the GI50 [25] was 248 nM, the GI50 [26] was 13.5 nM (active) and the GI50 [27] was 442 nM (active). The GI50 [28] was 105 nM (active), the GI50 [29] was 35.4 nM (active) and the GI50 [30] was 167 nM (active). For the same molecule, the GI50 [31] was 17.1 nM (active), the GI50 [32] was 16.1 nM (active) and the GI50 [33] was 753 nM (active). For the same molecule, the GI50 [34] was 61.9 nM (active), the GI50 [35] was < 10 nM (active) and the GI50 [36] was 332 nM (active). The GI50 [37] was < 14.9 nM (active), the GI50 [38] was < 12.8 nM (active) and the GI50 [39] was 238 nM (active). The GI50 [40] was 20.3 nM (active), the GI50 [41] was < 15.2 nM (active) and the GI50 [42] was < 10.9 nM (active). For the same molecule, the GI50 [43] was < 10 nM (active), the GI50 [44] was 410 nM (active) and the GI50 [45] was < 14.8 nM (active). The GI50 [46] was 32.7 nM (active), the GI50 [47] was 122 nM (active) and the GI50 [48] was 27.4 nM (active). For the same molecule, the GI50 [49] was 352 nM (active), the GI50 [50] was 218 nM (active) and the GI50 [51] was 32.6 nM (active). The GI50 [52] was 14.8 nM (active), the GI50 [53] was 500 nM (active) and the GI50 [54] was 166 nM (active). The GI50 [55] was 293 nM (active), the GI50 [56] was 16.9 nM (active) and the GI50 [57] was 212 nM (active). The GI50 [58] was 350 nM (active), the GI50 [59] was 40 nM (active) and the GI50 [60] was 4520 nM (inactive). The GI50 [61] was 103 nM (active), the GI50 [62] was 33.6 nM (active) and the GI50 [63] was 171 nM (active). The GI50 [64] was 196 nM (active), the GI50 [65] was 45.4 nM (active) and the GI50 [66] was 1530 nM (inactive). The GI50 [67] was 372 nM (active) and the GI50 [68] was 50.2 nM (active).

With `CCOC(=O)C1S/C(=N\C(=N)N[N+](=O)[O-])N=C1C` (stereo not drawn) the GI50 [1] was > 100000 nM (inactive), the GI50 [2] was > 100000 nM (inactive) and the GI50 [3] was > 100000 nM (inactive). The GI50 [4] was > 100000 nM (inactive), the GI50 [7] was > 100000 nM (inactive) and the GI50 [8] was > 100000 nM (inactive). The GI50 [9] was > 100000 nM (inactive), the GI50 [10] was > 100000 nM (inactive) and the GI50 [11] was > 100000 nM (inactive). For the same molecule, the GI50 [13] was > 100000 nM (inactive), the GI50 [14] was > 100000 nM (inactive) and the GI50 [15] was > 100000 nM (inactive). For the same molecule, the GI50 [16] was > 100000 nM (inactive), the GI50 [17] was > 100000 nM (inactive) and the GI50 [18] was > 100000 nM (inactive). The GI50 [19] was > 100000 nM (inactive), the GI50 [20] was > 100000 nM (inactive) and the GI50 [22] was > 100000 nM (inactive). The GI50 [24] was > 100000 nM (inactive), the GI50 [25] was over 100000 nM and the GI50 [26] was > 100000 nM (inactive). The GI50 [27] was > 100000 nM (inactive), the GI50 [31] was > 100000 nM (inactive) and the GI50 [32] was > 100000 nM (inactive). The GI50 [33] was > 100000 nM (inactive), the GI50 [34] was > 100000 nM (inactive) and the GI50 [36] was > 100000 nM (inactive). The GI50 [37] was > 100000 nM (inactive), the GI50 [39] was > 100000 nM (inactive) and the GI50 [40] was > 100000 nM (inactive). For the same molecule, the GI50 [42] was > 100000 nM (inactive), the GI50 [43] was > 100000 nM (inactive) and the GI50 [44] was > 100000 nM (inactive). The GI50 [45] was > 100000 nM (inactive), the GI50 [46] was > 100000 nM (inactive) and the GI50 [47] was > 100000 nM (inactive). The GI50 [48] was > 100000 nM (inactive), the GI50 [49] was > 100000 nM (inactive) and the GI50 [52] was > 100000 nM (inactive). For the same molecule, the GI50 [53] was > 100000 nM (inactive), the GI50 [54] was > 100000 nM (inactive) and the GI50 [56] was > 100000 nM (inactive). The GI50 [57] was > 100000 nM (inactive), the GI50 [58] was > 100000 nM (inactive) and the GI50 [59] was > 100000 nM (inactive). For the same molecule, the GI50 [61] was > 100000 nM (inactive), the GI50 [62] was > 100000 nM (inactive) and the GI50 [64] was > 100000 nM (inactive). For the same molecule, the GI50 [65] was > 100000 nM (inactive) and the GI50 [68] was > 100000 nM (inactive).
